We go through two substances from patent US20200131249A1, “NOVEL PROTEINS AND USE THEREOF” (EVOLVERITAS KFT., priority 2017, published 2020).

Usually Ki stands for the equilibrium dissociation constant of an inhibitor or competing ligand from its target.

In assay [1] the test system is extrinsic pathway. Nature of the assay: Prothrombin time (PT) in human plasma. As to the method: (§1) Blood coagulation measurements using blood plasma taken from healthy human individuals were also performed. From the blood obtained through venipuncture and treated with sodium citrate (3.8% wt/vol) the plasma was isolated by centrifugation (2,000 g, 15 minutes, Jouan CR412 centrifuge).
(§2) The effect of the protein variants of the present invention on the blood coagulation process was tested in three standard assays, the thrombin time, testing any direct effects on thrombin; prothrombin time, testing any effects on the extrinsic pathway; and the activated partial thromboplastin time, testing any effects on the intrinsic pathway. Blood was collected from a healthy individual by vein puncture after informed consent. The blood was treated with sodium-citrate (3.8% w/v) and centrifuged. All three assays were performed on the automated instrument Sysmex CA-1500 (Sysmex) with Innovin reagent (Dale Behring, Marburg, Germany).
(§3) The inhibitors were applied in a fivefold serial dilution with the highest final concentration being 36 μM. This value is 3-4 orders of magnitudes higher than the KI values of the three protein variants of the present invention on human MASP-2. Even at the highest concentration the protein variants of the present invention have only little effect in the APTT test and no effect in the PT and TT tests.

Assay [2] deals with alternative pathway. Nature of the assay: C3 deposition ELISA with rat serum on LPS coated plates. It is filed as biochemical. The settings on record: final concentrations as high as 50 μM; 6-fold diluted rat serum. Here is the method:
ELISA-based complement classical and alternative pathway activation tests were performed on IgG or lipopolysaccharide (LPS) coated plates, respectively, using diluted individual (not pooled) rat serum. In these tests, inhibitory efficiencies of the protein of SEQ ID NO: 14 and SGMI-2 were compared and C3 deposition was used for quantification of the complement activation.
The buffers, incubation times, incubation temperatures and antibodies were the same as described in point 4.5.1.
The final dilution of the rat serum was 6-fold. The dilution of the primary antibody was 3000-fold.
(An ELISA detects its analyte on a solid surface through an enzyme-linked reagent.)

In assay [3] the test system is thrombin. The experiment in a line: Thrombin time (TT) in human plasma. As to the method:
as §1, §2, §3

In assay [4] the target is T1, human MASP-1 (Homo sapiens, UniProt P48740).
T1 construct: catalytic enzyme fragments containing the three C-terminal domains: CCP1-CCP2-SP
T1 sequence (P48740 449-699 limits assumed): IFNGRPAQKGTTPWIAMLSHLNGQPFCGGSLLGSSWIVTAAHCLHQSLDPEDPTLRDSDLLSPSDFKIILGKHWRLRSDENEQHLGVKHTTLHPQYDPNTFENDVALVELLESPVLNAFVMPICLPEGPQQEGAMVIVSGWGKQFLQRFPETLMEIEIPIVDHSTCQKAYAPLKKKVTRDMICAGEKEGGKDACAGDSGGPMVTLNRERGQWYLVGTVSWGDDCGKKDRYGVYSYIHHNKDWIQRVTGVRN
T1 sequence (P48740 298-448 partner limits assumed): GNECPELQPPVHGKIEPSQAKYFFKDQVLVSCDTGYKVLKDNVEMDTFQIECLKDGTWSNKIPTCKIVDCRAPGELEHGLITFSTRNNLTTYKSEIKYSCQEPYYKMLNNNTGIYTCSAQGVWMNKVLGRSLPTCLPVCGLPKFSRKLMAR
Nature of the assay: KI determination on human MASP-1 catalytic fragment. It is filed as biochemical. More on the design: key to KI on human MASP-1: N.E.: not effective. The settings on record: catalytic fragment; Z-L-Lys-SBzl. As to the method: The inhibition equilibrium constant (KI) of all four inhibitor variants produced was measured on human MASP-2 and rat MASP-2. Additionally, KI values were measured also on human MASP-1 and human MASP-3 to assess the specificity of the inhibitors amongst the MASP enzymes. KI values of the inhibitors on bovine trypsin, a pancreatic model enzyme was also measured.
For determining the KI of the inhibitors on MASP enzymes we used catalytic enzyme fragments containing the three C-terminal domains: CCP1-CCP2-SP. The synthetic substrate used in the measurements was Z-L-Lys-SBzl hydrochloride (Sigma, C3647), from which a 10 mM stock solution was prepared. The reactions were performed in a volume of 0.2 ml at room temperature in a buffer consisting of 20 mM HEPES; 145 mM NaCl; 5 mM CaCl2; 0.05% Triton-X100. The substrate cleaved by the enzyme entered into a reaction with the 5,5′-Dithiobis(2-nitrobenzoic acid) (DTNB, Ellman's reagent, Sigma—D8130) auxiliary substrate present in the solution in 2-fold excess to Z-L-Lys-SBzl. The release of the chromophore group created in this way was monitored via the change of absorbance at 410 nm using a BioTek Synergy H4 multimode microplate reader.
A dilution sequence was prepared from the individual inhibitors, the enzyme was added to it, and it was incubated for 2 hours at room temperature. The samples were transferred on a 96-well microtiter plate (Nunc 269620). The reactions were started by adding the mixture of the substrate and the auxiliary substrate to the samples. The concentration of the substrate and the length of the measuring period were chosen so that under the given conditions the enzyme should consume less than 10% of the substrate. In this case we used 250 μM Z-L-Lys-SBzl and 500 μM DTNB in the reactions. In the course of measuring, a method developed for the characterisation of tight-binding inhibitors was used (Empie, 1982). The concentration of the product was measured as a function of reaction time. The slope of the straight line determined for the initial phase of the reaction was normalised with the slope obtained for the uninhibited enzyme reaction, and this value was multiplied with the total enzyme concentration. As a result of this we obtained the free enzyme concentration, which was plotted as a function of the total inhibitor concentration and the Ki value was determined according to the following equation:
E=y=E0−(E0+x+Ki−(((E0+x+Ki)^2)−4*E0*x)^(½))/2,
where E is the free (uninhibited) enzyme concentration, and E0 is the total enzyme concentration. The stock concentration of the inhibitors was determined by titration with bovine trypsin of known concentration. The results were calculated as the average of parallel measurements.

The target of assay [5] is T2, human MASP-3 (Homo sapiens, UniProt P48740).
T2 construct: catalytic enzyme fragments containing the three C-terminal domains: CCP1-CCP2-SP
T2 sequence (P48740 450-728 isoform P48740-2 limits assumed): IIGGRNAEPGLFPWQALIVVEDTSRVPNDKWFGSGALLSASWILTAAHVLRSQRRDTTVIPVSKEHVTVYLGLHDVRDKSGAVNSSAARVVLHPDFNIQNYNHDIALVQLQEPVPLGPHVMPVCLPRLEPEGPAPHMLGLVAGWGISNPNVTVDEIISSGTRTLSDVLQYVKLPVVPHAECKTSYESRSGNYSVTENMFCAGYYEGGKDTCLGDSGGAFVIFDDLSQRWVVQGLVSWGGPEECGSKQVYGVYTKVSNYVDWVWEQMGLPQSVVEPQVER
Particulars: Data from Héja et al. 2012a; cited from earlier work.

Assay [6] deals with MASP-2 (Homo sapiens, UniProt O00187). More on the design: catalytic enzyme fragments containing the three C-terminal domains: CCP1-CCP2-SP; made in house; inclusion bodies, renatured. Particulars: Data from Héja et al. 2012b; cited from earlier work.

Where no end group is shown, it is not given here.

Sequence of MASP-2 (O00187 445-686 limits assumed): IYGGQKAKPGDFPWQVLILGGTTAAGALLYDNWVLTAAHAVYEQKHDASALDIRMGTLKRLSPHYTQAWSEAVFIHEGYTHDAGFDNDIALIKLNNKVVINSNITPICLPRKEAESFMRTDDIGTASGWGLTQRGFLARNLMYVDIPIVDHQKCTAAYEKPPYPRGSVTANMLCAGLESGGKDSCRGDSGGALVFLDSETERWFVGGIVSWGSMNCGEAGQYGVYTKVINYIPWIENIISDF
Sequence of MASP-2 (O00187 287-444 partner limits assumed): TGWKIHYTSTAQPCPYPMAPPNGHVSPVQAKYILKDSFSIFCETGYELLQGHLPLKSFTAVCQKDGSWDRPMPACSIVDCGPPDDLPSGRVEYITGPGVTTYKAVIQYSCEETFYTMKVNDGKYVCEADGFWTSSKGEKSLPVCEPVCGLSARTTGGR

“SEQ ID NO: 14: TFPI-D2 variant protein with inhibitor loop PCRAVKR (SEQ ID NO: 4) (KPDFCFLEEDPGPCRAVKRRYFYNNQTKQCERFKYGGCLGNMNNFETLEECKNICEDG; ends and bridges not checked; cysteine pairing not given here)”: the PT came to 10.8 s in assay [1] (inhibitor 0.1 μM); 10.7 s in assay [1] (inhibitor 0.3 μM); 10.8 s in assay [1] (inhibitor 1.4 μM); 10.9 s in assay [1] (inhibitor 7.2 μM); 11.3 s in assay [1] (inhibitor 36.0 μM). In assay [2], the “inhibition of the alternative pathway in rat serum” value is “neither the protein of SEQ ID NO: 14 nor SGMI-2 were able to inhibit”. Further, the TT came out at 16.5 s in assay [3] (inhibitor 0.1 μM); 16.6 s in assay [3] (inhibitor 0.3 μM); 16.7 s in assay [3] (inhibitor 1.4 μM); 16.2 s in assay [3] (inhibitor 7.2 μM); 15.5 s in assay [3] (inhibitor 36.0 μM). Also, the “KI on human MASP-1” value in assay [4] is “N.E”.

In the case of “SGMI-2 (GSGEVTCEPGTTFKDKCNTCRCGSDGKSAVCTKLWCNQ; Synthetic protein of insect origin) [reference compound]”, the “inhibition of the alternative pathway in rat serum” value in assay [2] is “neither the protein of SEQ ID NO: 14 nor SGMI-2 were able to inhibit”. Besides, the Ki was approximately 5000 nM in assay [5] and 6 nM in assay [6]. Besides, in assay [4], the “KI on human MASP-1” value is given as “N.E”.
